Experimental data from PMC11063903, “Engineering a human P2X2 receptor with altered ligand selectivity in yeast” (The Journal of Biological Chemistry, 2024).
Changes are numbered by the printed parent chain.

Assays:
P2X2 A304W = target: T1, P2X2 A304W (Homo sapiens, UniProt Q9UBL9, A304W); test: Fast GCaMP-mScarletI assay in yeast, P2X2 A304W; format: cell-based; conditions: for Bottom, best fit value / Hillslope, best fit value / Top, best fit value: four-parameter logistic fit of ΔF/ΔT; for Bottom, best fit value / Hillslope, best fit value / Top, best fit value / EC50: n = 3; for EC50: four-parameter logistic fit, unit inferred, unit M, read-out: EC50, best fit value
T1 construct: expressed in transfected cells; host or cells: S. cerevisiae BY4741 background
T1 sequence (Q9UBL9 1-471 A304W): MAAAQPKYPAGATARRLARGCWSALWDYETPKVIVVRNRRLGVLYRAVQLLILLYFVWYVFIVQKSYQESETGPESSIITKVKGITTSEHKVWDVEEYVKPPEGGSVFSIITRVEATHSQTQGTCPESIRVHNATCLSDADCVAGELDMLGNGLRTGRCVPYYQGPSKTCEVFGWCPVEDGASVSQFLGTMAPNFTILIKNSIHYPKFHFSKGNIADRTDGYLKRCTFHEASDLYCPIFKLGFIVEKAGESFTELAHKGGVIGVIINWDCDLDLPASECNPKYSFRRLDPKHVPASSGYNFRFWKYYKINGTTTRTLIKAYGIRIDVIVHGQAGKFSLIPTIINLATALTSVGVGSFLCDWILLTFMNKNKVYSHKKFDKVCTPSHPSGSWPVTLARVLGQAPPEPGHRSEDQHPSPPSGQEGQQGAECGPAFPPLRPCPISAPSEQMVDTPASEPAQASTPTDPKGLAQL
Protocol: (§1) Figure 4 Unnatural-ligand gating in LBD libraries.A, WT P2X2 was tested with 1 mM ATP, 500 μM AMP-PNP, and compared to ATP with the broken receptor (K81C K83C) control with 1 mM ATP in the fast GCaMP-mScarletI assay (n = 3). […] B, heat map summarizing AMP-PNP signaling (ΔF/ΔT, fast GCaMP-mScarletI assay) in the site-saturation libraries (n = 2–3). All values are normalized to WT P2X2 with saturating amounts of AMP-PNP (500 μM) and therefore represent low signal (ΔF/ΔT) compared to the ATP ligand. C, F301W, F303Y, and A304W were combinatorially combined and tested against the WT, K81C K83C broken P2X2, and the single mutant clones with both ATP (1 mM, black) and AMP-PNP (500 μM, pink). […] Values here represent signal onset and are not normalized to a positive control (n = 2–5). D–K, dose response of each P2X variant with both ATP (black) and AMP-PNP (pink) in the fast GCaMP-mScarletI assay (n = 3). Statistics were performed via one-way ANOVA with Dunnett’s multiple comparisons with to the “broken” K81C K83C negative control. ∗ represents a p value ≤0.05, ∗∗ is p ≤ 0.01, and ∗∗∗ is p ≤ 0.001.
(§2) Given that the yeast-based screen seemed to recapitulate important structural and functional features of human ion channel function, we hypothesized that it might be possible to engineer new P2X2 functionalities in yeast, including new ligand specificity. […] We screened our 133-member library in the presence of 500 μM AMP-PNP (Fig. S7). While the AMP-PNP signal was uniformly low, three substitutions (F301W, F303Y, and A304W) increased signaling 2.5 to 2.8 times relative to the negative control receptor (Figs. 4B, and S7, D, F, and G). To gain a more complete view of the properties of these mutants, dose–response curves were generated with ATP and AMP-PNP (Fig. 4, D–G, and Table S2).
(§3) GCaMP assays were performed as follows. P2X2 GCaMP strains were designed with a bi-cistronic reporter, in which the GCaMP protein was followed by a 2A peptide and a mScarletI reporter ([53]). The co-translated mScarletI was designed to act as a control for plasmid loss, GCaMP breakage via nonsense mutation, and contamination. […] P2X2-GCaMP strains were cultured and induced as previously described. Samples were induced for 24 h to allow for the accumulation of the mature GCaMP protein. Cells were washed three times in 0.1 M MES/Tris buffer and resuspended with MES/Tris with supplemental calcium. Cells were loaded onto a black, clear bottom microplate and imaged on a FlexStation3 plate reader. Samples were imaged in “flex” mode. Samples were imaged for 48 s at an interval of 1.6 s. Fluorescence was measured with an excitation at 485 nm, and emission 525 nm. At the 21 s mark, 100 μl ligand solution was transferred to the cells. For strains with mScarlet, fluorescence was read with excitation 570 nm/emission 610 nm. Slopes were calculated from the last 6 points of measurement and were normalized to the positive control samples. Any replicate in which the mScarlet value was measured to be over 2 standard deviations less than the mean for that set was discarded from further analysis.
(§4) For multiple comparisons in the site-saturation screening data, One-way ANOVA with Dunnett’s multiple comparisons test was performed where every sample was compared to the “broken” negative control. Significance was plotted where ∗ represents a p value ≤0.05, ∗∗ is p ≤0.01, and ∗∗∗ is p ≤0.001. Dose–response curves were fit with nonlinear regression software using a four-parameter logistic curve. All statistics were calculated and plotted in Graphpad Prism software.

P2X2 F303Y = target: T2, P2X2 F303Y (Homo sapiens, UniProt Q9UBL9, F303Y); test: Fast GCaMP-mScarletI assay in yeast, P2X2 F303Y; format: cell-based; conditions: for Bottom, best fit value / Hillslope, best fit value / Top, best fit value: four-parameter logistic fit of ΔF/ΔT; for Bottom, best fit value / Hillslope, best fit value / Top, best fit value / EC50: n = 3; for EC50: four-parameter logistic fit, unit inferred, unit M, read-out: EC50, best fit value
T2 construct: expressed in transfected cells; host or cells: S. cerevisiae BY4741 background
T2 sequence (Q9UBL9 1-471 F303Y): T1 sequence (Q9UBL9 1-471 A304W) with F303Y, W304A
Protocol: as §1, §2, §3, §4

activity compared to the wild-type (P2X2 A304W; AMP-PNP dose-response, high ligand concentrations) | activity compared to the wild-type (P2X2 F303Y; AMP-PNP dose-response, Fig. 4D-G, Table S2) | SMILES | Bottom, best fit value (P2X2 A304W) | Hillslope, best fit value (P2X2 A304W) | Top, best fit value (P2X2 A304W) | EC50 (P2X2 A304W) | Bottom, best fit value (P2X2 F303Y) | Hillslope, best fit value (P2X2 F303Y) | Top, best fit value (P2X2 F303Y) | EC50 (P2X2 F303Y)
55.87 fold | 1.89 fold | Nc1ncnc2c1ncn2[C@@H]1O[C@H](COP(=O)(O)OP(=O)(O)NP(=O)(O)O)[C@@H](O)[C@H]1O [AMP-PNP] | -0.1131 | 1.702 | 50.72 | 621 µM | 0.2603 | 0.8857 | 2.141 | 328 µM
 |  | Nc1ncnc2c1ncn2[C@@H]1O[C@H](COP(=O)(O)OP(=O)(O)OP(=O)(O)O)[C@@H](O)[C@H]1O [ATP] | 0.89 | 2.41 | 67.64 | 16.6 µM | 0.80 | 2.18 | 68.07 | 3.6 µM
